Results published in patent publication US8962329B2, “Gene cluster” (Shanghai Institute of Organic Chemistry, Chinese Academy of …, priority 2008, dated 2015).

What was measured:
SfaA = experiment: AMP PPi assay of the putative meta-hydroxylase SfaA expressed in E. coli; type: biochemical, Streptomyces sp. A92-308110 (S. flaveolus)
Excerpt: Traditional phenylalanine/tyrosine/tryptophan hydroxylation systems all rely on an electrophilic substitution reaction to realize hydroxylation in the electron-rich regions of aromatic systems. On the contrary, the meta-hydroxylation of phenylalanine occurs at the relatively electron-poor meta position of phenylalanine. […] The putative meta-hydroxylase, SfaA, was expressed in E. coli and isolated using standard methods.

SfaR = experiment: in vitro activity of purified His-tagged SfaR (reduction / reductive carboxylation) on acyl substrates; type: biochemical, Streptomyces sp A92-309110 (S. flaveolus)
Excerpt: To validate the central role of SfaR for unusual building block supply in the proposed pathway, we first inactivated sfaR by in-frame deletion. […] Secondly, we heterologously expressed and purified the N-terminal 6× His-tagged SfaR to near homogeneity for in vitro studies. As expected, in the presence of NADPH and bicarbonate, crotonyl-S-CoA (FIG. 7, 4) was efficiently converted by SfaR to the major product ethylmalonyl-S-CoA (FIG. 7, 5) along with the shunt product butyryl-S-CoA (FIG. 7, 7). […] To exclude the possibility that the reaction directly occurs on the ACP, SfaO was expressed and purified as a N-terminal 6×His-tagged derivative. […] Thirdly, to detect the substrate flexibility of SfaR, we synthesized the 5-carbon substrate pentenyl-S-CoA.

MLR = conditions: compared with SFA; cited from earlier work

## CC(=O)NCCSC(=O)C(N)Cc1ccccc1 (centres unmarked)
SfaA
  activity of SfaA on the substrate: did show activity

## C/C=C/C(=O)SCCNC(=O)CCNC(=O)[C@H](O)C(C)(C)COP(=O)(O)OP(=O)(O)OC[C@H]1O[C@@H](n2cnc3c(N)ncnc32)[C@H](O)[C@@H]1OP(=O)(O)O [crotonyl-S-CoA]
SfaR; substrate crotonyl-S-CoA, SfaR, NADPH
  Km: 840 µM

## CC/C=C/C(=O)SCCNC(=O)CCNC(=O)[C@H](O)C(C)(C)COP(=O)(O)OP(=O)(O)OC[C@H]1O[C@@H](n2cnc3c(N)ncnc32)[C@H](O)[C@@H]1OP(=O)(O)O [pentenyl-S-CoA]
SfaR; pentenyl-S-CoA in reductively producing pentanoyl-S-CoA
  Km: 1400 µM

## N[C@@H](Cc1ccccc1)C(=O)O [phenylalanine]
SfaA
  activity of SfaA on the substrate: no activity

## sanglifehrin B
MLR
  immunosuppressive activity in MLR assays: higher immunosuppressive activity than SFA
